From ChEMBL document CHEMBL3352178, “Antidepressant- and anxiolytic-like activity of 7-phenylpiperazinylalkyl-1,3-dimethyl-purine-2,6-dione derivatives with diversified 5-HT₁A receptor functional profile” (Bioorg Med Chem, 2015)
Active and inactive are the calls of the source. The rule behind the calls is not given here.

How the values were obtained:
Mus musculus [1] = assay: Inhibition of (+/-)-DOI-induced head twitch response in mouse dosed intraperitoneally 60 mins before (+/-)-DOI injection; type: functional
Mus musculus [2] = assay: Anxiolytic-like activity in mouse assessed as increase in number of punished crossings at 0.312 mg/kg, ip dosed 60 mins before test by four plate test; type: functional; settings: route intraperitoneal
Mus musculus [3] = assay: Anxiolytic-like activity in mouse assessed as increase in number of punished crossings at 0.625 mg/kg, ip dosed 60 mins before test by four plate test; type: functional; settings: route intraperitoneal
Mus musculus [4] = assay: Effect on spontaneous locomotor activity in mouse at 0.312 mg/kg, ip; type: ADME, organism-based; parameters: dose 0.312 mg/kg, route intraperitoneal; settings: in vivo
Mus musculus [5] = assay: Effect on spontaneous locomotor activity in mouse at 0.625 mg/kg, ip; type: ADME, organism-based; parameters: dose 0.625 mg/kg, route intraperitoneal; settings: in vivo
Mus musculus [6] = assay: Anxiolytic-like activity in mouse assessed as increase in number of punished crossings at 0.156 mg/kg, ip dosed 60 mins before test co-administered with 0.625 mg/kg diazepam by four plate test; type: functional, organism-based
Mus musculus [7] = assay: Antidepressant-like activity in mouse assessed as reduction in immobility time at 0.156 to 5 mg/kg, ip dosed 60 mins before test by forced swim test; type: functional, organism-based
[8] = target: T1, 5-hydroxytryptamine receptor 1A (Rattus norvegicus, UniProt P19327); assay: Displacement of [3H]-8-OH-DPAT from 5-HT1AR in rat hippocampus; type: tissue-based
T1 sequence (P19327 whole entry): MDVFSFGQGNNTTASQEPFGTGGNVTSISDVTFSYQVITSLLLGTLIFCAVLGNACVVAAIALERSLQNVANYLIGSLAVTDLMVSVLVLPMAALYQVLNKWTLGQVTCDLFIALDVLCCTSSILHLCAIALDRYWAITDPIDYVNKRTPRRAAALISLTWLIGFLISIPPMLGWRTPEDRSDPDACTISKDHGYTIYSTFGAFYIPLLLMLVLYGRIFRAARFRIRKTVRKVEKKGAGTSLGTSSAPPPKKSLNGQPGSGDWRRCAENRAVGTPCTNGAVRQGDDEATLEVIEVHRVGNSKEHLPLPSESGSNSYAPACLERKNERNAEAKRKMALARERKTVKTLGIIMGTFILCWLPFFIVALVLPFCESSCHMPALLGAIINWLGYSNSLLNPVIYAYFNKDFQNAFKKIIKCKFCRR

[9] = target: 5-hydroxytryptamine receptor 2A (Rattus norvegicus, UniProt P14842); assay: Displacement of [3H]-ketanserin from 5-HT2AR in rat cortex
5-hydroxytryptamine receptor 2A, sequence (P14842 whole entry): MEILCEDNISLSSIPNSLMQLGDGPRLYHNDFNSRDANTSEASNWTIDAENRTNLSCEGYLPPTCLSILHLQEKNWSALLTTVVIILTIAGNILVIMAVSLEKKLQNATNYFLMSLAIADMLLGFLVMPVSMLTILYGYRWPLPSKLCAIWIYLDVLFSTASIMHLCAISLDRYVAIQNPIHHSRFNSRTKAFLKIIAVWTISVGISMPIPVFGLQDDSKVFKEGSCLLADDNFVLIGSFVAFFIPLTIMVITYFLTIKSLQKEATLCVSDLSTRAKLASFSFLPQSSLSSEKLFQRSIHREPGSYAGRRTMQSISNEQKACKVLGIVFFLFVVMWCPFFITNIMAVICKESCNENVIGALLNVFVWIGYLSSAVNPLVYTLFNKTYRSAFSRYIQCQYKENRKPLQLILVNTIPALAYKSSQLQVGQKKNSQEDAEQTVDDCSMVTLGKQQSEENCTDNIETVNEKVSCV

[10] = target: 5-hydroxytryptamine receptor 6 (Homo sapiens, UniProt P50406); assay: Displacement of [3H]LSD from human cloned 5-HT6R expressed in HEK293 cells; type: cell-based
5-hydroxytryptamine receptor 6, sequence (P50406 whole entry): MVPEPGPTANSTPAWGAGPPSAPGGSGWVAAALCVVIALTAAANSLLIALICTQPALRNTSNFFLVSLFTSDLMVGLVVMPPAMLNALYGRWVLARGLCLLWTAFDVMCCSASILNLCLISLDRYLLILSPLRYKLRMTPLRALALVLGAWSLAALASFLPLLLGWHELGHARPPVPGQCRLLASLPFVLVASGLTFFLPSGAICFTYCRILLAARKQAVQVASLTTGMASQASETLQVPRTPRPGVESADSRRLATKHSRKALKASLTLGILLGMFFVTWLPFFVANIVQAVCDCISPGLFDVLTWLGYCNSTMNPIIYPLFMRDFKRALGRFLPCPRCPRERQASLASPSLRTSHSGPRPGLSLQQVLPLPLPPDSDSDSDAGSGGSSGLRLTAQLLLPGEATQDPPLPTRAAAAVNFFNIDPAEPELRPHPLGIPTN

[11] = target: 5-hydroxytryptamine receptor 7 (Homo sapiens, UniProt P34969); assay: Displacement of [3H]]-5-CT from human cloned 5-HT7R expressed in HEK293 cells; type: cell-based
5-hydroxytryptamine receptor 7, sequence (P34969 whole entry): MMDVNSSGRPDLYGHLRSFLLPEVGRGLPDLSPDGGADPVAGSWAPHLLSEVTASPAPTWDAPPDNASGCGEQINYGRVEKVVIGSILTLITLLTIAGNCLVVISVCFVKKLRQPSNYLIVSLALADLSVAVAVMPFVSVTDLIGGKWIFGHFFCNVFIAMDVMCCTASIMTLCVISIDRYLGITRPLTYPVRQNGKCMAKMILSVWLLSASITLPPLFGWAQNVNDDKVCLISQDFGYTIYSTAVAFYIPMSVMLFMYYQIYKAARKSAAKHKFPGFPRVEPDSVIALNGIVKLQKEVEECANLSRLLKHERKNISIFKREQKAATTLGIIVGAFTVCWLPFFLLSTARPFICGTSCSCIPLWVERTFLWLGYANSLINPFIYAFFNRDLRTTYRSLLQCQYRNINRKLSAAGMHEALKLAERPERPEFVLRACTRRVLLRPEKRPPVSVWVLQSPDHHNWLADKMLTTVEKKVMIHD

D(2) dopamine receptor = D(2) dopamine receptor (Rattus norvegicus, UniProt P61169); assay: Displacement of [3H]-spiperone from dopamine D2 receptor in rat striatum
D(2) dopamine receptor, sequence (P61169 whole entry): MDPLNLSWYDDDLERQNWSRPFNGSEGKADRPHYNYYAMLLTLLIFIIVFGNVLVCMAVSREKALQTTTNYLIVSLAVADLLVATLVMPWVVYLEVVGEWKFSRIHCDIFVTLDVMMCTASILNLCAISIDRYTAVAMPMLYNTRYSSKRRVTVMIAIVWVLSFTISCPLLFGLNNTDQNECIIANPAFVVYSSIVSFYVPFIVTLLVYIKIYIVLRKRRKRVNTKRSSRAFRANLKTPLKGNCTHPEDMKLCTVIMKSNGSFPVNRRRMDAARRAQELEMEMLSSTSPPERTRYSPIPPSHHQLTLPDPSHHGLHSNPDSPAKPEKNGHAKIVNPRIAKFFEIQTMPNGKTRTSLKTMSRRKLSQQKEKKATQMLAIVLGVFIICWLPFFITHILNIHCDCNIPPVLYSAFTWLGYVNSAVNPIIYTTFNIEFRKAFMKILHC

Mus musculus [12] = assay: Induction of hypothermia in mouse assessed as change in body temperature at 2.5 mg/kg, ip administered 30 mins before test and measured 30 mins post dose; type: functional, organism-based; parameters: dose 2.5 mg/kg
Mus musculus [13] = assay: Induction of hypothermia in mouse assessed as change in body temperature at 5 mg/kg, ip administered 30 mins before test and measured 30 mins post dose; type: functional, organism-based; parameters: dose 5 mg/kg
Mus musculus [14] = assay: Induction of hypothermia in mouse assessed as change in body temperature at 2.5 mg/kg, ip administered 30 mins before test and measured 60 mins post dose; type: functional, organism-based; parameters: dose 2.5 mg/kg
Mus musculus [15] = assay: Induction of hypothermia in mouse assessed as change in body temperature at 5 mg/kg, ip administered 30 mins before test and measured 60 mins post dose; type: functional, organism-based; parameters: dose 5 mg/kg
Mus musculus [16] = assay: Induction of hypothermia in mouse assessed as change in body temperature at 2.5 mg/kg, ip administered 30 mins before test and measured 90 mins post dose; type: functional, organism-based; parameters: dose 2.5 mg/kg
Mus musculus [17] = assay: Induction of hypothermia in mouse assessed as change in body temperature at 5 mg/kg, ip administered 30 mins before test and measured 90 mins post dose; type: functional, organism-based; parameters: dose 5 mg/kg
Mus musculus [18] = assay: Induction of hypothermia in mouse assessed as change in body temperature at 2.5 mg/kg, ip administered 30 mins before test and measured 120 mins post dose; type: functional, organism-based; parameters: dose 2.5 mg/kg
Mus musculus [19] = assay: Induction of hypothermia in mouse assessed as change in body temperature at 5 mg/kg, ip administered 30 mins before test and measured 120 mins post dose; type: functional, organism-based; parameters: dose 5 mg/kg
Mus musculus [20] = assay: Induction of hypothermia in mouse assessed as change in body temperature at 2.5 mg/kg, ip administered 30 mins before test and measured 30 mins post dose in presence of 0.3 mg/kg, sc 5HT1A receptor antagonist WAY 100635; type: functional, organism-based
Mus musculus [21] = assay: Induction of hypothermia in mouse assessed as change in body temperature at 2.5 mg/kg, ip administered 30 mins before test and measured 60 mins post dose in presence of 0.3 mg/kg, sc 5HT1A receptor antagonist WAY 100635; type: functional, organism-based
Rattus norvegicus [22] = assay: Induction of lower lip retraction in rat assessed as lower lip retraction scores at 1 mg/kg, ip dosed 15 mins before test; type: functional; settings: route intraperitoneal
Rattus norvegicus [23] = assay: Induction of lower lip retraction in rat assessed as lower lip retraction scores at 5 mg/kg, ip dosed 15 mins before test; type: functional; settings: route intraperitoneal
Rattus norvegicus [24] = assay: Induction of lower lip retraction in rat assessed as lower lip retraction scores at 10 mg/kg, ip dosed 15 mins before test; type: functional; settings: route intraperitoneal
Rattus norvegicus [25] = assay: Inhibition of 8-OH-DPAT-induced lower lip retraction in rat assessed as lower lip retraction scores at 1 mg/kg, ip dosed 45 mins before 8-OH-DPAT; type: functional; settings: route intraperitoneal
Rattus norvegicus [26] = assay: Inhibition of 8-OH-DPAT-induced lower lip retraction in rat assessed as lower lip retraction scores at 5 mg/kg, ip dosed 45 mins before 8-OH-DPAT; type: functional; settings: route intraperitoneal
Rattus norvegicus [27] = assay: Inhibition of 8-OH-DPAT-induced lower lip retraction in rat assessed as lower lip retraction scores at 10 mg/kg, ip dosed 45 mins before 8-OH-DPAT; type: functional; settings: route intraperitoneal
Mus musculus [28] = assay: Inhibition of (+/-)-DOI-induced head twitch response in mouse assessed as head twitches per 20 mins at 2.5 mg/kg, ip dosed 60 mins before (+/-)-DOI injection (reference value: 21.6 +/- 3.4/20 mins); type: functional; settings: route intraperitoneal
Mus musculus [29] = assay: Inhibition of (+/-)-DOI-induced head twitch response in mouse assessed as head twitches per 20 mins at 5 mg/kg, ip dosed 60 mins before (+/-)-DOI injection (reference value: 21.6 +/- 3.4/20 mins); type: functional; settings: route intraperitoneal
Mus musculus [30] = assay: Inhibition of (+/-)-DOI-induced head twitch response in mouse assessed as head twitches per 20 mins at 10 mg/kg, ip dosed 60 mins before (+/-)-DOI injection (reference value: 21.6 +/- 3.4/20 mins); type: functional; settings: route intraperitoneal
Mus musculus [31] = assay: Inhibition of (+/-)-DOI-induced head twitch response in mouse assessed as head twitches per 20 mins at 0.625 mg/kg, ip dosed 60 mins before (+/-)-DOI injection (reference value: 21.6 +/- 3.4/20 mins); type: functional; settings: route intraperitoneal
Mus musculus [32] = assay: Inhibition of (+/-)-DOI-induced head twitch response in mouse assessed as head twitches per 20 mins at 1.25 mg/kg, ip dosed 60 mins before (+/-)-DOI injection (reference value: 21.6 +/- 3.4/20 mins); type: functional; settings: route intraperitoneal

Cl.Cn1c(=O)c2c(ncn2CCCCCN2CCN(c3cccc(Cl)c3)CC2)n(C)c1=O
inhibition (Mus musculus [1]): Dose-dependent effect | ED50 (Mus musculus [1]; ip, read-out: ID50 (the source's name)): 2.54 mg/kg | Activity (Mus musculus [2]): 71% | Activity (Mus musculus [3]): 57% | Activity (Mus musculus [4]): Non-toxic | Activity (Mus musculus [5]): Non-toxic | Activity (Mus musculus [6]): Active | Activity (Mus musculus [7]): inactive | Ki [8]: 5 nM | Ki [9]: 54 nM | Ki [10]: 1200 nM | Ki [11]: 131 nM | Ki (D(2) dopamine receptor): 40 nM | deltaT (Mus musculus [12]): -2.1 °C | deltaT (Mus musculus [13]): -2.2 °C | deltaT (Mus musculus [14]): -1.8 °C | deltaT (Mus musculus [15]): -1.4 °C | deltaT (Mus musculus [16]): -1.5 °C | deltaT (Mus musculus [17]): -1.1 °C | deltaT (Mus musculus [18]): -1.3 °C | deltaT (Mus musculus [19]): 0.3 °C | deltaT (Mus musculus [20]): -1.8 °C | deltaT (Mus musculus [21]): -2 °C | Activity (Rattus norvegicus [22]): 0.2 | Activity (Rattus norvegicus [23]): 0.3 | Activity (Rattus norvegicus [24]): 0.1 | Activity (Rattus norvegicus [25]): 1.8 | Activity (Rattus norvegicus [26]): 1.1 | Activity (Rattus norvegicus [27]): 0.5 | Activity (Mus musculus [28]): 8.2 | Activity (Mus musculus [29]): 5.8 | Activity (Mus musculus [30]): 1.3 | Activity (Mus musculus [31]): 12.8 | Activity (Mus musculus [32]): 10.8
